Reference: patent publication US11007554B2, “Method, system and device for reducing microbial concentration and/or biofilm formation” (EMODs Technology, L.L.C., priority 2018, dated 2021)
Like-named read-outs stand apart in the source and are kept apart here.

System: microbes

Compound: OO [hydrogen peroxide]
- microbes eliminated (3% hydrogen peroxide together with radiation of a wavelength between 300 and 600 nanometers): 99.999%
- microbes eliminated (3% solution of hydrogen peroxide alone): approximately 30%
